Here are results for 9 compounds from patent US20230320984A1, “TOFACITINIB-CONTAINING ANHYDROUS ELASTOMER-BASED GEL FORMULATIONS” (Vyne Therapeutics Inc., priority 2022, published 2023).

Where a name gives a salt, the structure may show the parent alone. Read-outs that look alike come from different tables or passages of the source.

Data set [1] deals with Hartley-derived albino guinea pigs. To be noted: for test animals with erythema scores of 1 / test animals with erythema scores of 2: 0.1% w/v DNCB challenge. The method, then:
A DNCB positive control group consisting of 10 DNCB test and 10 DNCB control guinea pigs are included in this study. The animals are treated as below with the DNCB test animals receiving 0.1% w/v DNCB in acetone and ethanol for induction and 0.1% and 0.05% w/v DNCB in acetone and ethanol for challenge.
The Test Article, placebo control, and the appropriate positive control articles are administered dermally for approximately 6 hours once on Days 0, 7, and 14 for inductions 1 to 3. The animals are reclipped on the day prior to dosing or induction to visualize the test sites clearly for grading. Following a 2-week rest period, a challenge (Day 28) is performed for Test Article group and placebo group on the same animal but on a different test site than the induction site. During the challenge phase the 20 Test Article group and 10 common challenge control guinea pigs are topically treated with Test Article and the 20 placebo control article and the same 10 common challenge control guinea pigs (separate test sites) are topically treated with placebo. Challenge responses for each of these groups are compared with those of the common challenge control animals. If challenge results are considered indefinite a rechallenge is conducted.
On the day prior to the first DNCB induction or dose administration (Day −1), the hair is removed from the left side of the test animals with a small animal clipper. Care is taken to avoid abrading the skin during the clipping procedures. On the day following clipping (Day 0), chambers containing the appropriate material are applied to the clipped area of the test animals and DNCB test animals. For the induction and challenge phases, a dose of 0.3 mL (or maximum volume for viscous materials) is placed on a 25 mm Hill Top Chamber® backed by adhesive tape (occlusive patch). The chambers are then applied to the clipped surface as quickly as possible.
The application site for induction is moved when irritation persists from a previous induction exposure (to ensure the test article is not dosed on compromised skin) but remains on the left side of the animal.
On the day prior to challenge dose administration, the test, placebo control article, challenge control, DNCB test, and DNCB challenge control animals are weighed, and the hair is removed from the right side of the animals.

Data set [2] relates to Human skin from cosmetic reduction surgery. The data set is described as follows: Skin penetration (IVPT), vertical diffusion cell (Method A). The class given is in vitro ADME. The method, then:
The skin is dosed with approx. 6 mg of formulation to achieve a dose of ˜ 10 mg/cm2. Receptor solution is collected at pre-determined intervals over the course of 24 hours and analyzed using a liquid chromatography with tandem mass spectrometry (LC-MS/MS) analytical method.
Following 24 hours, the residual formulation is removed from the surface of the skin. The skin surface is tape-stripped up to five times to remove residual formulation and the top of the skin surface layers (Stratum Corneum). The epidermis is then heat-separated from the dermis. The active agent is extracted from the skin layers and the amount of active agent delivered to the epidermis and dermis is then determined by LC-MS/MS.

Data set [3] can be described thus: AD murine model: body weight. As for the experimental part:
(§1) Atopic Dermatitis is induced by once daily application for 38 days of 100 μl of 0.5% 2,4-dinitrochlorobenzene (DNCB) solution onto the shaved back skin of mice. Starting on day 32, test formulations are administered once daily onto the shaved back skin of mice in addition to DNCB. Several measurements are taken at different time points:
Daily from Day 32: Body weight, mortality, behaviour (scratching), general condition, AD index.

For data set [4] the following is noted: cited from earlier work.
Data set [5] in a line: Stability of tofacitinib citrate solution in 50 mM citrate buffer at different pH, 60° C. The class given is physicochemical. On the set-up: unit not given here. From the text:
In one or more embodiments the pH, is about 4, about 4.1, about 4.2, about 4.3, about 4.4, about 4.5, about 4.6, about 4.7, about 4.8, about 4.9 or about 5.

The nature of data set [6]: Solubility test of tofacitinib citrate in solvents and excipients (Method D). It counts as physicochemical. As for the experimental part:
Saturated solutions of tofacitinib citrate in various solvents are generated by agitating (stirring) an excess amount of solid crystalline tofacitinib citrate in the corresponding solvent at ambient conditions. […] An additional analysis is performed after 48 hours of agitation to confirm the determined saturated concentration.

Data set [7] relates to Atopic Dermatitis induced by 2,4-dinitrochlorobenzene (DNCB). The data set is described as follows: AD murine model: Atopic Dermatitis Index (ADI, mADI) (Method C). To be noted: DNCB induced mice. The class given is in vivo. From the text: In the mouse model the positive control is observed to cause a marked weight loss and thinning of the skin and this can be perceived to mask the scoring observed with the other parameters and omitting it may on one level provide a clearer representation of the treatment potential of the combination since no marked weight loss or thinning is noted other than with the positive control.
The presence of erythema/haemorrhage is scored based on the following scoring grid: • 0=no or no more erythema/haemorrhage on the skin, • 1=weak erythema/haemorrhage on the skin, • 2=moderate erythema/haemorrhage on the skin, • 3=severe erythema/haemorrhage on the skin.
The presence of edema/thickening is scored based on the following scoring grid: • 0=no or no more edema/thickening of the skin, • 1=weak edema/thickening of the skin, • 2=moderate edema/thickening of the skin, • 3=severe edema/thickening of the skin.
The presence of excoriation/erosion is scored based on the following scoring grid: • 0=no or no more excoriation/erosion of the skin, • 1=weak excoriation/erosion of the skin, • 2=moderate excoriation/erosion of the skin, • 3=severe excoriation/erosion of the skin.
The presence of dryness/peeling is scored based on the following scoring grid: • 0=no or no more dryness/peeling of the skin, • 1=weak dryness/peeling of the skin, • 2=moderate dryness/peeling of the skin, • 3=severe dryness/peeling of the skin.
Several measurements are taken at different time points: […]

For data set [8] the following is noted: human, in vivo.
Description: (§2) Values below the limit of concentration are omitted from determination of geometric mean and geometric % CV.
(§3) Frozen samples are thawed at room temperature and homogenized by vortexing. 10 μL of ISTD2 and 104, of Methanol/Water (50/50, v/v) to each sample (exception blank samples for which 20.0 μL Methanol/Water (50/50, v/v) is added) is addeded to Eppendorf tubes each containing 100 μL sample. 300 μL of acetonitrile is added to each sample and vortexed for additional 10 sec. Next samples are centrifuged for 10 min at 14000 rpm at 5° C. 310 μL of the supernatant is transferred into a 96-DWP. Samples are evaporated at approximately 40° C. (turbovap 96) under N2. 100 μL mobile phase A (see table below) is added to each sample and the 96-DWP is sealed with heatsealing foil and shaken for 5 min on a Vortex-shaker and then centrifuged for 5 min with settings 4500 rpm at 5° C. The 96-DWP is transferred to the autosampler and then the samples are diluted by 100-fold, first by adding 10 μl of sample in 904, of blank plasma/water (dilution 1/10) and then by pipetting 104, of sample diluted 10 fold in 904, of blank plasma (dilution 1/100). The diluted samples are vortexed for 5 sec and processed.
(§4) After, the analyte is separated on a Luna Omega Polar C18 column (50×2.1 mm, 3 μm) with gradient elution of a mobile phase composed of water/acetonitrile/ammonium formate/formic acid it is analyzed using electrospray ionization (ESI) tandem mass spectrometry (MS/MS) in the multiple reaction monitoring mode (MRM).
The next data set can be described thus: clinical. To be noted: human, in vivo.
The nature of data set [9]: Chemical stability of formulations (Method H). To be noted: gel with Tofacitinib Citrate 1.0% and Fingolimod HCl 0.01% (Table 38). The class given is physicochemical. As for the experimental part:
Where another active agent such as fingolimod is present in the formulations the samples are analyzed for that active agent and its degradation products by HPLC. […] The gradient elution is employed.

For data set [10], the system named is Atopic Dermatitis induced by DNCB. Also on record: species or system mice. To be noted: mouse, in vivo. The method, then:
as §1
Day 39: Histological analysis of skin samples, microscopic scoring of AD, blood assays, assay for pro-inflammatory cytokines IL-1β, IL-6, IL-18, TNF-α, IgE, and histamine assays.

The mark [11] stands for this setting: Ex 43 Table 43 (fingolimod and tofacitinib).
The mark [12] stands for this setting: Ex 42 Table 42 (fingolimod alone).

As a reminder, the AUC(0-t) is exposure summed from dosing to a finite time, without extrapolation to infinity. Broadly, the Tmax is the time from dosing to the highest level.

Description for clinical: as §2, §3, §4

For the compound `O=[N+]([O-])c1ccc(Cl)c([N+](=O)[O-])c1` [DNCB, 2,4-dinitrochlorobenzene], the “test animals with dermal scores of 1” value in [1] (0.05% w/v DNCB challenge, 24-hour scoring interval) is 4/10. For the same compound, the “test animals with erythema scores of 1” value was 5/10 in [1] (24-hour scoring interval) and 6/10 in data set [1] (48-hour scoring interval). Also, the “test animals with erythema scores of 2” value in data set [1] (24-hour scoring interval) is recorded as 5/10; in data set [1] (48-hour scoring interval) it was 4/10. Also, the “Group mean dermal score at challenge” value in data set [1] (challenge with 0.05% w/v DNCB in acetone and ethanol, control animals 0.25) amounted to 0.6; in data set [1] (challenge with 0.1% w/v DNCB in acetone and ethanol, control animals 0.375), 1.45.

In the case of `CCCCCCCCc1ccc(CCC(N)(CO)CO)cc1` [Fingolimod HCl 0.011%], in [2] (setting [11]), the “Dermis concentration, ng (based on the Mean)” value worked out at 14.82 ng and the “Epidermis concentration, ng (based on the Mean)” value is recorded as 16.21 ng.

`CCCCCCCCc1ccc(CCC(N)(CO)CO)cc1` [Fingolimod HCl 0.022%]: in data set [2] (setting [12]), the “Dermis concentration, ng (based on the Mean)” value is given as 49.16 ng and the “Epidermis concentration, ng (based on the Mean)” value is 37.5 ng.

As to `CCCCCCCCc1ccc(CCC(N)(CO)CO)cc1` [Fingolimod hydrochloride], the “tolerability (body weight)” value in [3] (fingolimod AD study, 0.1% w/w and 1% w/w) was “not well tolerated”. Besides, the solubility entry in [4] (ethanol) is recorded as “soluble”; in data set [4] (range from pH 1.2-4.5), “freely soluble”; in data set [4] (water and methanol), “freely soluble”.

Turning to `C[C@@H]1CCN(C(=O)CC#N)C[C@@H]1N(C)c1ncnc2[nH]ccc12` [Tofacitinib citrate], in [5] (pH 4.5, 2 w), the “Imp B” value was 0.10. For the same compound, the “RRT 1.29” value in data set [5] (pH 5, 1 w) was found to be 0.09; in data set [5] (pH 5, 2 w), 0.08. For the same compound, the “RRT 1.42” value in data set [5] (pH 5, 1 w) was 0.14. Also, the “Solubility of TOF Citrate” value was 4.06 mg/g in data set [6] (in 0.02% HCl); “ND (degraded)” in [6] (in 0.05% NaOH); 0.81 mg/g in data set [6] (in Benzyl Alcohol); greater than 150 mg/g in data set [6] (in DMSO); 0.02 mg/g in data set [6] (in Diisopropyl adipate); 1.27 mg/g in [6] (in Dimethyl isosorbate). For the same compound, the “Solubility of TOF Citrate” value in data set [6] (in Ethanol) is 0.61 mg/g; in data set [6] (in Glycerin) it was 0.97 mg/g; in data set [6] (in Hexylene Glycol) it was 0.25 mg/g; in data set [6] (in Isopropyl Alcohol) it was 0.24 mg/g; in data set [6] (in Isopropyl myristate), less than 0.02 mg/g; in [6] (in MCT oil (Caprylic/capric triglycerides)) it was less than 0.01 mg/g. Moreover, the “Solubility of TOF Citrate” value in data set [6] (in Oleyl alcohol) was determined as 0.09 mg/g; in data set [6] (in PPG-11 Stearyl ether), 0.02 mg/g; in [6] (in Polyethylene Glycol 200), 5.16 mg/g; in data set [6] (in Polyethylene Glycol 400) it was 6.96 mg/g; in [6] (in Propylene Glycol), 1.70 mg/g; in data set [6] (in Transcutol) it was 2.01 mg/g. For the same compound, the “Solubility of TOF Citrate” value in [6] (in Water) was found to be 2.77 mg/g.

For the compound `CC1(C)O[C@@H]2C[C@H]3[C@@H]4CCC5=CC(=O)C=C[C@]5(C)[C@@]4(F)[C@@H](O)C[C@]3(C)[C@]2(C(=O)CO)O1` [Triamcinolone acetonide], the “Body weight: Weight D32” value in data set [3] (DNCB induced mice, Example 41, D32 (treatment start), mean) was found to be 18.31. In [3] (DNCB induced mice, Example 41, D39, mean), the “Body weight: Weight D39” value is reported as 15.66. Moreover, in data set [3] (DNCB induced mice, Example 41, (+) weight gain, (−) weight loss), the “Mean Body Weight Change d39 − d32” value is recorded as −2.65. Also, in [7] (Example 41, D39), the “ADI breakdown: Dryness-Peeling D39” value was found to be 0.88, the “ADI breakdown: Edema-Thickening D39” value was found to be 0.00, the “ADI breakdown: Erythema-Haemorrhage D39” value turned out to be 0.00 and the “ADI breakdown: Excoriation-Erosion D39” value came to 0.00.

On to `C[C@@H]1CCN(C(=O)CC#N)C[C@@H]1N(C)c1ncnc2[nH]ccc12` [tofacitinib], for which the “AUC(0-12) Median” value in data set [8] was 1.056 ng·h/mL. For the same compound, in data set [8], the “Tmax Geomean” value is 3.00 h. The “Tmax Median” value in data set [8] was found to be 3.00 h. Moreover, the AUC(0-t) in the data set “clinical” (AUC(0-12) Median) stood at 1.97 ng·h/mL; in the data set “clinical” (AUC(0-24) Geomean) it was 3.21 ng·h/mL; in “clinical” (AUC(0-24) Mean), 4.03 ng·h/mL; in “clinical” (AUC(0-24) Median), 3.14 ng·h/mL. Also, the Tmax in the data set “clinical” (Tmax Geomean) was 5.05 h; in the data set “clinical” (Tmax Median), 6 h. The “Assay of Tofacitinib, % LC” value came out at 99.2 % LC in [9] (2 months at 40° C.), 98.6 % LC in data set [9] (2 months at 50° C.), 99.3 % LC in data set [9] (3 weeks at 5° C.) and 99.1 % LC in data set [9] (3 weeks at 50° C.).

For the compound `CC1(C)O[C@@H]2C[C@H]3[C@@H]4CCC5=CC(=O)C=C[C@]5(C)[C@@]4(F)[C@@H](O)C[C@]3(C)[C@]2(C(=O)CO)O1` [triamcinolone acetonide], the “AD Index, Mean ADI values D 39” value in [7] (combination study (Example 41), D 39) is 0.88.

Consider Triamcinolone, for which, in data set [3] (mouse, in vivo), the “Body weight D39, Mean” value amounted to 17.7 g; the “Body weight D39 mean” value is 17.1 g; the “Mean Body Weight Change d39 − d32” value is listed as −2.80. Besides, the “skin thinner than vehicle-treated normal skin” value in [10] was “about 0.8 fold”.
